# Source: patent US8652769B2, “Methods for separating frozen-thawed spermatozoa into X-chromosome bearing and Y-chromosome bearing populations” (XY, LLC, priority 2000, dated 2014)
# Marks after values point to notes of the source that are not given here.
# System: oocytes inseminated with separated stained spermatozoa from frozen-thawed sperm
# Experiment: In-vitro fertilization: cleavage and development of oocytes inseminated with stained, flow-sorted frozen-thawed bull sperm
# Assay type: cell-based, bovine
# Description: As an example of an application of embodiments of the invention involving frozen bull sperm in IVF applications, sperm samples from two bulls were stained either at a concentration of 224 μM or 2,240 of Hoechst 33342 and the stained spermatozoa were then bulk sorted on a flow cytometer at 1000 sperm/sec into 2% egg yolk citrate. Spermatozoa were inseminated at 1×10^6/mL and embryos were cultured in the mSOF system described by Tervit H. R. et al., Successful Culture In-Vitro of Sheep and Cattle Ova, J. Reprod. Fertil., 30:493-497([…]), hereby incorporated by reference. Three replicates were carried out for bull 1 and one replicate for bull 2 (Table 1). With conventional procedures, blastocyst production with separated spermatozoa can be 70-90% of controls with spermatozoa that have not been separated.
# As can be understood, it can take much longer to stain frozen-thawed sperm so that they can be resolved during separation at the lower stain concentration than at 10×stain concentration. The differences observed in cleavage rates between the two stain concentrations most likely can be attributed to the extended incubation time at the lower stain level.
# [1] = Bull 1, 3 ejaculates, Hoechst 33342 conc. 224 μM, staining time required 190 min, 368 oocytes
# [2] = Bull 1, 3 ejaculates, Hoechst 33342 conc. 2240 μM, staining time required 60 min, 373 oocytes
# [3] = Bull 2, 1 ejaculate, Hoechst 33342 conc. 224 μM, staining time required 190 min, 86 oocytes
# [4] = Bull 2, 1 ejaculate, Hoechst 33342 conc. 2240 μM, staining time required 60 min, 81 oocytes
compound,measurement,setting,value
CCOc1ccc(-c2nc3ccc(-c4nc5ccc(N6CCN(C)CC6)cc5[nH]4)cc3[nH]2)cc1 [Hoechst 33342],% blastocysts/oocyte,[1],17%
same,% cleave,[1],44^a %
same,% blastocysts/oocyte,[2],23%
same,% cleave,[2],60^b %
same,% blastocysts/oocyte,[3],0^a %
same,% cleave,[3],23^a %
same,% blastocysts/oocyte,[4],16^b %
same,% cleave,[4],42^b %
same,effect of increased stain concentration on cleavage or embryonic development,stain concentration up to at least 2240 μM,does not appear to have a depressive effect
